Among the data in PubChem BioAssay (NCI) are TGI and GI50 values, retold here.

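Where inhibition never reached the appropriate level, the endpoint shown equals the highest concentration tested. Otherwise, values were interpolated linearly from a five-concentration, 48-hour dose response in 96-well plates. GI50 = concentration required for 50% inhibition of growth. TGI denotes the concentration required for complete inhibition of growth.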 Bounds are passed on as bounds.

Test systems include SN12C renal; UACC-257 melanoma; HCT-15 colon; OVCAR-3 ovarian; HCC-2998 colon; SF-295 CNS; IGROV1 ovarian; SR leukemia; ACHN renal; NCI-H23 lung; UO-31 renal; U251 CNS; CCRF-CEM leukemia; UACC-62 melanoma; SK-MEL-2 melanoma.
Common to all, as to assay: NCI tumour cell line growth inhibition, 48 h

On to `CC(C)=CCOc1ccc(-c2coc3cc4c(c(O)c3c2=O)C=CC(C)(C)O4)cc1`, for which the TGI in the assay on SN12C renal, in the assay on UACC-257 melanoma, with HCT-15 colon, in the assay with OVCAR-3 ovarian, with HCC-2998 colon and in the assay on SF-295 CNS was more than 100 µM throughout. For the same compound, the TGI in the assay on IGROV1 ovarian, with SR leukemia, in the assay with ACHN renal, with NCI-H23 lung, in the assay on UO-31 renal and in the assay with U251 CNS was more than 100 µM in each case. Further, in the assay on CCRF-CEM leukemia, the TGI is more than 100 µM.

In the case of `CN1N=C(c2ccccc2)c2cc(Cl)ccc2N=C1N/N=C/c1ccc(N(C)C)cc1`, the TGI in the assay with SN12C renal, with UACC-257 melanoma, with HCT-15 colon, with OVCAR-3 ovarian, in the assay on HCC-2998 colon and with SF-295 CNS was more than 100 µM each time. Further, the TGI in the assay on IGROV1 ovarian, with SR leukemia, in the assay on ACHN renal, in the assay with NCI-H23 lung, in the assay with UO-31 renal and in the assay with U251 CNS was more than 100 µM throughout. Besides, the TGI in the assay on UACC-62 melanoma and in the assay with CCRF-CEM leukemia was more than 100 µM each time.

Turning to `O=C1c2c(O)cccc2Cc2cc(CO)cc(O)c21`, the TGI stood at 16.9 µM with SN12C renal; 5.64 µM in the assay with UACC-257 melanoma; 11.3 µM with HCT-15 colon; 5.03 µM with OVCAR-3 ovarian; 18.4 µM with HCC-2998 colon; 5.85 µM in the assay with SF-295 CNS. Moreover, the TGI in the assay on IGROV1 ovarian is 20.1 µM; with SR leukemia, 12.1 µM; with ACHN renal it was 12.4 µM; in the assay with NCI-H23 lung, 6.06 µM; in the assay with UO-31 renal, 4.97 µM; in the assay on U251 CNS, 10.7 µM. For the same compound, the TGI with CCRF-CEM leukemia was more than 100 µM.

As for `CCN1C/C(=C\c2ccc(Cl)cc2)c2[nH]c(=O)c(C#N)c(-c3ccc(Cl)cc3)c2C1`, the TGI in the assay with SN12C renal, in the assay with UACC-257 melanoma, with HCT-15 colon, in the assay on OVCAR-3 ovarian, in the assay with HCC-2998 colon and in the assay on IGROV1 ovarian was more than 100 µM each time. The TGI in the assay on SR leukemia, with ACHN renal, in the assay with SK-MEL-2 melanoma, in the assay on NCI-H23 lung, with U251 CNS and in the assay on UACC-62 melanoma was more than 100 µM each time. In the assay on CCRF-CEM leukemia, this compound displayed a TGI of more than 100 µM.

For `CCOC(=O)c1ccn2c(c1)c(C#N)c1nc3ccccc3nc12`, the TGI in the assay on SN12C renal is more than 100 µM; with UACC-257 melanoma it was more than 100 µM; in the assay on HCT-15 colon, more than 100 µM; in the assay with OVCAR-3 ovarian, more than 100 µM; in the assay with HCC-2998 colon, more than 100 µM; in the assay with IGROV1 ovarian, 59.8 µM. In addition, the TGI in the assay on SR leukemia, with ACHN renal, in the assay with SK-MEL-2 melanoma, in the assay on NCI-H23 lung, in the assay with UO-31 renal and with U251 CNS was more than 100 µM each time. The TGI in the assay on UACC-62 melanoma amounted to 25.7 µM; in the assay with CCRF-CEM leukemia, 68.4 µM.

On to `CNC(=O)NCCN1N=C(C)/C(=C\c2ccccc2)CC1=O`, for which the TGI in the assay on SN12C renal, in the assay with UACC-257 melanoma, in the assay on OVCAR-3 ovarian, with HCC-2998 colon, with SF-295 CNS and with IGROV1 ovarian was more than 100 µM throughout. For the same compound, the TGI in the assay on SR leukemia, in the assay with ACHN renal, in the assay with SK-MEL-2 melanoma, with NCI-H23 lung, in the assay with UO-31 renal and with U251 CNS was more than 100 µM in each case. In addition, the TGI in the assay with UACC-62 melanoma and in the assay on CCRF-CEM leukemia was more than 100 µM in each case.

On to `COc1cc([C@@H]2c3cc4c(cc3[C@@H](NC(=O)NO)[C@H]3COC(=O)[C@H]23)OCO4)cc(OC)c1O`, for which the TGI in the assay with SN12C renal, in the assay on UACC-257 melanoma, in the assay with HCT-15 colon, in the assay on HCC-2998 colon, with SF-295 CNS and in the assay on IGROV1 ovarian was more than 100 µM throughout. Also, the TGI in the assay on SR leukemia, with SK-MEL-2 melanoma, with NCI-H23 lung, in the assay with U251 CNS and in the assay with CCRF-CEM leukemia was more than 100 µM each time. In addition, the GI50 in the assay with HCC-2998 colon is 4.06 µM; with SF-295 CNS it was 4.97 µM; with ACHN renal, 6.04 µM; in the assay on NCI-H23 lung, 9.31 µM.

On to `N#CC(C#N)=Cn1c(=S)[nH]c2ccc([N+](=O)[O-])cc21`, for which the TGI in the assay on SN12C renal, with UACC-257 melanoma, in the assay on OVCAR-3 ovarian, in the assay with HCC-2998 colon, in the assay on SF-295 CNS and with IGROV1 ovarian was more than 100 µM each time. The TGI with SR leukemia, in the assay on ACHN renal, in the assay with SK-MEL-2 melanoma, in the assay on NCI-H23 lung, in the assay with UO-31 renal and in the assay with U251 CNS was more than 100 µM throughout. In addition, the TGI in the assay with UACC-62 melanoma and in the assay on CCRF-CEM leukemia was more than 100 µM throughout.

As for `Oc1cccc2ccc(Br)nc12`, the TGI in the assay on SN12C renal, with UACC-257 melanoma, in the assay with HCT-15 colon, in the assay with OVCAR-3 ovarian, in the assay on HCC-2998 colon and with SF-295 CNS was more than 100 µM throughout. The TGI with IGROV1 ovarian, in the assay on SR leukemia, in the assay on ACHN renal, with NCI-H23 lung, in the assay with UO-31 renal and with U251 CNS was more than 100 µM each time. In addition, the TGI in the assay with UACC-62 melanoma and in the assay with CCRF-CEM leukemia was more than 100 µM each time.

For the compound `COC1OC(Cn2cc([N+](=O)[O-])nc2C)C(O)C(O)C1O` (stereo not drawn), the TGI in the assay with UACC-257 melanoma, with HCT-15 colon, in the assay on OVCAR-3 ovarian, in the assay with HCC-2998 colon, in the assay with SF-295 CNS and in the assay with IGROV1 ovarian was more than 100 µM in each case. Also, the TGI with SR leukemia, in the assay on ACHN renal, in the assay with SK-MEL-2 melanoma, with NCI-H23 lung, in the assay on UO-31 renal and with U251 CNS was more than 100 µM in each case. In addition, the TGI in the assay with UACC-62 melanoma and in the assay with CCRF-CEM leukemia was more than 100 µM each time.
